Test system: Antibody to Immunogen III
Type: binding, sheep
Details: Cross-reactants at 100 ng/ml; 1000ng/ml; single level of cross reactants
Experimental: (§1) The wells of an enhanced binding 96 well polystyrene microtiter plate were coated with IgG fraction of antiserum raised to Immunogen VI, diluted in 10mM Tris, pH8.5 (125µl/well). The appropriate antibody coating dilution was determined using standard ELISA checkerboard techniques. The plate was incubated overnight at 4°C, washed 4 times over 10 minutes with Tris buffered saline containing Tween 20 (TBST) and tapped dry. Standard solutions of RCS-4 were prepared in TBST at 0, 0.3125, 0.625, 1.25, 2.5, 5, 10 and 20ng/ml, and 50µl of each was added to the appropriate wells (see figure 1). 75µl of conjugate (appropriate hapten-HRP) diluted in Tris buffer (pH 7.2) containing EDTA, D-mannitol, sucrose, thimerosal and BSA, was added to each of the wells. The appropriate dilution of conjugate was also determined using standard ELISA checkerboard techniques. The plate was incubated at 25°C for 1 hour. Excess unbound conjugate was removed by washing 6 times over a 10 minute period with TBST. 125µl oftetramethylbenzidine (TMB) substrate solution was added to each well of the plate that was then incubated for 20 minutes in the dark at room temperature. The reaction was terminated by addition of 125µl 0.2M H2SO4 to each well. The absorbance was then measured at 450nm using a microtiter plate reader. The data are inputted to a computer program called 'KC Junior'. It is a 4 parameter fit curve and allow the calculatation of concentrations between the standard runs. This program is used to calculate the IC50s by dividing the 0ng/ml OD value by 2 and obtaining the concentration value from the curve for this OD.
In a similar manner to that described above, the wells of a 96-well microtiter plate were coated with the IgG fraction of the antiserum raised to Immunogens I, II or III. Standard solutions (JWH-250 for Immunogen III) were applied at 0, 0.625, 1.25, 2.5, 5, 10, 20 and 40ng/ml and conjugate was employed as detection reagent.
(§2) The data set our in Tables 3 and 4 are generated using antibodies raised against the indicated Immunogens in a competitive binding assay with the indicated tracers, using the indicated standards: Table 2
(§3) In order to determine the specificity of the competitive ELISAs, standard solutions of a range of structurally similar synthetic cannabinoids and their metabolites were prepared in TBST. Using the calibration curves generated and employing a single level of cross reactants, these were used to determine the cross-reactivity of each immunoassay with these substances. Table 4: Cross reactivity of the competitive ELISAs for synthetic cannabinoids and their metabolites

Going from `CCCCCn1ccc(C(=O)c2cccc3ccccc23)c1` [JWH-030] to `CCCCn1cc(C(=O)c2cccc3ccccc23)c2ccccc21` [JWH-073], the “%B/B0” value falls from 95.34% to 81.25%.

Compared with `CCCCn1cc(C(=O)c2ccc(C)c3ccccc23)c2ccccc21` [JWH-073 4-methylnaphthyl analogue], `CCCCCn1cc(C(=O)c2ccc(C)c3ccccc23)c2ccccc21` [JWH-122] is lower in “%B/B0” value: 78.03% for the first, 69.90% for the second.

Going from `CC(O)CCn1cc(C(=O)c2cccc3ccccc23)c2ccccc21` (stereo not drawn) [JWH-073 N-(3-hydroxybutyl) metabolite] to `O=C(c1cccc2ccccc12)c1cn(CCCCO)c2ccccc12` [JWH-073 N-(4-hydroxybutyl) metabolite], the “%B/B0” value falls from 94.05% to 87.63%.

Going from `O=C(O)CCCn1cc(C(=O)c2cccc3ccccc23)c2ccccc21` [JWH-073 N-butanoic acid metabolite] to `Cc1ccc(C(=O)c2cn(CCCCCO)c3ccccc23)c2ccccc12` [JWH-122 N-(5-hydroxypentyl) metabo lite], the “%B/B0” value falls from 97.45% to 81.72%.

Going from `CCCCCn1cc(C(=O)c2c(OC)ccc3ccccc23)c2ccccc21` [JWH-081 2-methoxynaphthyl isomer or (JWH-267)] to `CCCCCn1cc(C(=O)c2cccc3c(OC)cccc23)c2ccccc21` [JWH-081 5-methoxynaphthyl isomer], the “%B/B0” value falls from 85.59% to 76.35%.

Going from `CCCCCn1cc(C(=O)c2cccc3ccc(OC)cc23)c2ccccc21` [JWH-081 7-methoxynaphthyl isomer (JWH-164)] to `CCCCCn1cc(C(=O)Cc2ccc(OC)cc2)c2ccccc21` [JWH-201], the “%B/B0” value falls from 75.18% to 27.93%.

Compared with `COc1ccc(C(=O)c2cn(CCCCCO)c3ccccc23)c2ccccc12` [JWH-081 N-(5-hydroxypentyl) metabolite], `CCCCCn1cc(C(=O)c2ccc(CCC)c3ccccc23)c2ccccc21` [JWH-182] is lower in “%B/B0” value: 76.44% for the first, 76.14% for the second.

First: CCCCCn1c(C)c(C(=O)c2ccc(OC)c3ccccc23)c2ccccc21 [JWH-098]
Second: CCCCCn1cc(C(=O)Cc2ccccc2Cl)c2ccccc21 [JWH-203]
The “%B/B0” value of the first is higher: 74.71% for the first, 18.15% for the second.

First: CCCC(C)(C)c1ccc2c(c1)OC(C)(C)[C@@H]1CC=C(C)C[C@@H]21 [JWH-133]
Second: O=C(c1cccc2ccccc12)c1cn(CCN2CCOCC2)c2ccc(O)cc12 [JWH-200 5-hydroxyindole metabolite]
The “%B/B0” value of the first is higher: 97.40% for the first, 96.49% for the second.

First: O=C(c1ccc2ccccc2c1)c1cn(CCN2CCOCC2)c2ccccc12 [JWH-200 2'-naphthyl isomer]
Second: O=C(c1cccc2ccccc12)c1cn(CCN2CCOCC2)c2cc(O)ccc12 [JWH-200 6-hydroxyindole metabolite]
The “%B/B0” value of the first is higher: 99.13% for the first, 95.45% for the second.

In the case of `O=C(c1cccc2ccccc12)c1cn(CCN2CCOCC2)c2cccc(O)c12` [JWH-200 4-hydroxyindole metabolite], the “%B/B0” value was 95.93%.

Same assay, conditions: Cross-reactants at 100 ng/ml; 1000ng/ml; single level of cross reactants; listed as JWH-164 (JWH-081 7-methoxynaphthyl isomer)

`CCCCCn1cc(C(=O)c2cccc3ccc(OC)cc23)c2ccccc21` [JWH-081 7-methoxynaphthyl isomer (JWH-164)] was tested, and the “%B/B0” value was 72.63%.

Test system: Antibody to Immunogen V
Type: binding, sheep
Details: Cross-reactants at 100 ng/ml; 1000ng/ml; single level of cross reactants
Experimental: as §1
In a similar manner to that described above, the wells of a 96-well microtiter plate were coated with the IgG fraction of the antiserum raised to Immunogens IV, V, VII or VIII. Standard solutions (RCS-8 for Immunogen V) were prepared in TBST at 0, 1.25, 2.5, 5, 10, 20, 40 and 80ng/ml and conjugate was employed as detection reagent.
as §2, §3

Going from `CCCCCn1ccc(C(=O)c2cccc3ccccc23)c1` [JWH-030] to `CCCCn1cc(C(=O)c2cccc3ccccc23)c2ccccc21` [JWH-073], the “%B/B0” value falls from 77.27% to 66.65%.

Going from `CCCCn1cc(C(=O)c2ccc(C)c3ccccc23)c2ccccc21` [JWH-073 4-methylnaphthyl analogue] to `CCCCCn1cc(C(=O)c2ccc(C)c3ccccc23)c2ccccc21` [JWH-122], the “%B/B0” value rises from 65.84% to 69.63%.

Compared with `CC(O)CCn1cc(C(=O)c2cccc3ccccc23)c2ccccc21` (stereo not drawn) [JWH-073 N-(3-hydroxybutyl) metabolite], `O=C(c1cccc2ccccc12)c1cn(CCCCO)c2ccccc12` [JWH-073 N-(4-hydroxybutyl) metabolite] is lower in “%B/B0” value: 63.79% for the first, 63.73% for the second.

Going from `O=C(O)CCCn1cc(C(=O)c2cccc3ccccc23)c2ccccc21` [JWH-073 N-butanoic acid metabolite] to `Cc1ccc(C(=O)c2cn(CCCCCO)c3ccccc23)c2ccccc12` [JWH-122 N-(5-hydroxypentyl) metabo lite], the “%B/B0” value falls from 70.75% to 68.77%.

First: CCCCCn1cc(C(=O)c2c(OC)ccc3ccccc23)c2ccccc21 [JWH-081 2-methoxynaphthyl isomer or (JWH-267)]
Second: CCCCCn1cc(C(=O)c2cccc3c(OC)cccc23)c2ccccc21 [JWH-081 5-methoxynaphthyl isomer]
The “%B/B0” value of the first is lower: 70.37% for the first, 90.40% for the second.

Going from `CCCCCn1cc(C(=O)c2cccc3ccc(OC)cc23)c2ccccc21` [JWH-081 7-methoxynaphthyl isomer (JWH-164)] to `CCCCCn1cc(C(=O)Cc2ccc(OC)cc2)c2ccccc21` [JWH-201], the “%B/B0” value falls from 87.25% to 68.62%.

Compared with `COc1ccc(C(=O)c2cn(CCCCCO)c3ccccc23)c2ccccc12` [JWH-081 N-(5-hydroxypentyl) metabolite], `CCCCCn1cc(C(=O)c2ccc(CCC)c3ccccc23)c2ccccc21` [JWH-182] is higher in “%B/B0” value: 72.78% for the first, 82.38% for the second.

Compared with `CCCCCn1c(C)c(C(=O)c2ccc(OC)c3ccccc23)c2ccccc21` [JWH-098], `CCCCCn1cc(C(=O)Cc2ccccc2Cl)c2ccccc21` [JWH-203] is lower in “%B/B0” value: 81.09% for the first, 15.33% for the second.

First: CCCC(C)(C)c1ccc2c(c1)OC(C)(C)[C@@H]1CC=C(C)C[C@@H]21 [JWH-133]
Second: O=C(c1cccc2ccccc12)c1cn(CCN2CCOCC2)c2ccc(O)cc12 [JWH-200 5-hydroxyindole metabolite]
The “%B/B0” value of the first is higher: 90.40% for the first, 82.38% for the second.

Going from `O=C(c1ccc2ccccc2c1)c1cn(CCN2CCOCC2)c2ccccc12` [JWH-200 2'-naphthyl isomer] to `O=C(c1cccc2ccccc12)c1cn(CCN2CCOCC2)c2cc(O)ccc12` [JWH-200 6-hydroxyindole metabolite], the “%B/B0” value falls from 75.36% to 69.91%.

For `O=C(c1cccc2ccccc12)c1cn(CCN2CCOCC2)c2cccc(O)c12` [JWH-200 4-hydroxyindole metabolite], the “%B/B0” value was 74.79%.

Same assay, conditions: Cross-reactants at 100 ng/ml; 1000ng/ml; single level of cross reactants; listed as JWH-164 (JWH-081 7-methoxynaphthyl isomer)

In the case of `CCCCCn1cc(C(=O)c2cccc3ccc(OC)cc23)c2ccccc21` [JWH-081 7-methoxynaphthyl isomer (JWH-164)], the “%B/B0” value was 82.81%.

Test system: Antibody to Immunogen VI
Type: binding, sheep
Details: Cross-reactants at 100 ng/ml; 1000ng/ml; single level of cross reactants
Experimental: as §1, §2, §3

Compared with `CCCCCn1ccc(C(=O)c2cccc3ccccc23)c1` [JWH-030], `CCCCn1cc(C(=O)c2cccc3ccccc23)c2ccccc21` [JWH-073] is lower in “%B/B0” value: 86.70% for the first, 74.80% for the second.

Compared with `CCCCn1cc(C(=O)c2ccc(C)c3ccccc23)c2ccccc21` [JWH-073 4-methylnaphthyl analogue], `CCCCCn1cc(C(=O)c2ccc(C)c3ccccc23)c2ccccc21` [JWH-122] is higher in “%B/B0” value: 70.97% for the first, 75.29% for the second.

Compared with `CC(O)CCn1cc(C(=O)c2cccc3ccccc23)c2ccccc21` (stereo not drawn) [JWH-073 N-(3-hydroxybutyl) metabolite], `O=C(c1cccc2ccccc12)c1cn(CCCCO)c2ccccc12` [JWH-073 N-(4-hydroxybutyl) metabolite] is lower in “%B/B0” value: 72.55% for the first, 70.57% for the second.

First: O=C(O)CCCn1cc(C(=O)c2cccc3ccccc23)c2ccccc21 [JWH-073 N-butanoic acid metabolite]
Second: Cc1ccc(C(=O)c2cn(CCCCCO)c3ccccc23)c2ccccc12 [JWH-122 N-(5-hydroxypentyl) metabo lite]
The “%B/B0” value of the first is higher: 76.27% for the first, 71.84% for the second.

Going from `CCCCCn1cc(C(=O)c2c(OC)ccc3ccccc23)c2ccccc21` [JWH-081 2-methoxynaphthyl isomer or (JWH-267)] to `CCCCCn1cc(C(=O)c2cccc3c(OC)cccc23)c2ccccc21` [JWH-081 5-methoxynaphthyl isomer], the “%B/B0” value falls from 86.87% to 77.74%.

Going from `CCCCCn1cc(C(=O)c2cccc3ccc(OC)cc23)c2ccccc21` [JWH-081 7-methoxynaphthyl isomer (JWH-164)] to `CCCCCn1cc(C(=O)Cc2ccc(OC)cc2)c2ccccc21` [JWH-201], the “%B/B0” value falls from 92.27% to 69.32%.

Compared with `COc1ccc(C(=O)c2cn(CCCCCO)c3ccccc23)c2ccccc12` [JWH-081 N-(5-hydroxypentyl) metabolite], `CCCCCn1cc(C(=O)c2ccc(CCC)c3ccccc23)c2ccccc21` [JWH-182] is higher in “%B/B0” value: 69.47% for the first, 85.69% for the second.

First: CCCCCn1c(C)c(C(=O)c2ccc(OC)c3ccccc23)c2ccccc21 [JWH-098]
Second: CCCCCn1cc(C(=O)Cc2ccccc2Cl)c2ccccc21 [JWH-203]
The “%B/B0” value of the first is lower: 78.96% for the first, 83.09% for the second.

Compared with `CCCC(C)(C)c1ccc2c(c1)OC(C)(C)[C@@H]1CC=C(C)C[C@@H]21` [JWH-133], `O=C(c1cccc2ccccc12)c1cn(CCN2CCOCC2)c2ccc(O)cc12` [JWH-200 5-hydroxyindole metabolite] is lower in “%B/B0” value: 93.73% for the first, 93.65% for the second.

First: O=C(c1ccc2ccccc2c1)c1cn(CCN2CCOCC2)c2ccccc12 [JWH-200 2'-naphthyl isomer]
Second: O=C(c1cccc2ccccc12)c1cn(CCN2CCOCC2)c2cc(O)ccc12 [JWH-200 6-hydroxyindole metabolite]
The “%B/B0” value of the first is lower: 20.66% for the first, 88.68% for the second.

In the case of `O=C(c1cccc2ccccc12)c1cn(CCN2CCOCC2)c2cccc(O)c12` [JWH-200 4-hydroxyindole metabolite], the “%B/B0” value was 90.44%.

Same assay, conditions: Cross-reactants at 100 ng/ml; 1000ng/ml; single level of cross reactants; listed as JWH-164 (JWH-081 7-methoxynaphthyl isomer)

With `CCCCCn1cc(C(=O)c2cccc3ccc(OC)cc23)c2ccccc21` [JWH-081 7-methoxynaphthyl isomer (JWH-164)] the “%B/B0” value was 89.29%.

Reference: patent publication EP2698384A1, “Detection of synthetic cannabinoids” (priority 2012, dated 2014)
